Results: patent US12065436B2, “Cardiac sarcomere inhibitors” (Cytokinetics, Inc., priority 2018, dated 2024)

Molecular target: bovine cardiac myofibrils (full-length cardiac myosin ATPase in the native sarcomere) (Bos taurus (Bovine), UniProt Q9BE39)
Test: Skinned bovine cardiac myofibril ATPase assay (PK/LDH-coupled)
Format: biochemical
Details: Ca2+ activating to 75% of maximal rate; for CDMF75 IC15: concentration giving 15% inhibition; for IC50: read-out: CDMF75 IC50
Experimental: To evaluate the effect of compounds on the ATPase activity of full-length cardiac myosin in the context of the native sarcomere, skinned myofibril assays were performed. Bovine cardiac myofibrils were obtained by homogenizing bovine cardiac left ventricular tissue in the presence of a detergent such as triton X-100. Such treatment removes membranes and a majority of the soluble cytoplasmic proteins but leaves intact the cardiac sarcomeric acto-myosin apparatus. Myofibril preparations retain the ability to hydrolyze ATP in an Ca^2+ regulated manner. ATPase activities of such myofibril preparations in the presence and absence of compounds were assayed at Ca^2+ concentrations activating to a defined fraction of the maximal rate (i.e., 25%, 75%). Small molecule agents were assessed for their ability to inhibit the steady-state ATPase activity of bovine cardiac myofibrils using pyruvate kinase and lactate dehydrogenase (PK/LDH)-coupled enzyme system. This assay regenerates myosin-produced ADP into ATP by oxidizing NADH, producing an absorbance change at 340 nm. Prior to testing small molecule agents, the bovine cardiac myofibrils were assessed for their calcium responsiveness and the calcium concentration that achieves either a 50% (pCa50) or 75% (pCa75) activation of the myofibril system was chosen as the final condition for assessing the inhibitory activity of the small molecule agents. All enzymatic activity was measured in a buffered solution containing 12 mM PIPES (piperazine-N,N′-bis(2-ethanesulfonic acid), 2 mM magnesium chloride at pH 6.8 (PM 12 buffer). Final assay conditions were 1 mg/mL of bovine cardiac myofibrils, 4 U/mL pyruvate kinase, 6 U/mL lactate dehydrogenase, 50 μM ATP, 0.1 mg/mL BSA (bovine serum albumin), 10 ppm antifoam, 1 mM DTT, 0.5 mM NADH, 1.5 mM PEP, 0.6 mM EGTA, and an amount of CaCl2) sufficient to achieve either 50% or 75% activation of the myofibril ATPase activity.

bovine cardiac myofibrils (full-length cardiac myosin ATPase in the native sarcomere), sequence (Q9BE39 whole entry): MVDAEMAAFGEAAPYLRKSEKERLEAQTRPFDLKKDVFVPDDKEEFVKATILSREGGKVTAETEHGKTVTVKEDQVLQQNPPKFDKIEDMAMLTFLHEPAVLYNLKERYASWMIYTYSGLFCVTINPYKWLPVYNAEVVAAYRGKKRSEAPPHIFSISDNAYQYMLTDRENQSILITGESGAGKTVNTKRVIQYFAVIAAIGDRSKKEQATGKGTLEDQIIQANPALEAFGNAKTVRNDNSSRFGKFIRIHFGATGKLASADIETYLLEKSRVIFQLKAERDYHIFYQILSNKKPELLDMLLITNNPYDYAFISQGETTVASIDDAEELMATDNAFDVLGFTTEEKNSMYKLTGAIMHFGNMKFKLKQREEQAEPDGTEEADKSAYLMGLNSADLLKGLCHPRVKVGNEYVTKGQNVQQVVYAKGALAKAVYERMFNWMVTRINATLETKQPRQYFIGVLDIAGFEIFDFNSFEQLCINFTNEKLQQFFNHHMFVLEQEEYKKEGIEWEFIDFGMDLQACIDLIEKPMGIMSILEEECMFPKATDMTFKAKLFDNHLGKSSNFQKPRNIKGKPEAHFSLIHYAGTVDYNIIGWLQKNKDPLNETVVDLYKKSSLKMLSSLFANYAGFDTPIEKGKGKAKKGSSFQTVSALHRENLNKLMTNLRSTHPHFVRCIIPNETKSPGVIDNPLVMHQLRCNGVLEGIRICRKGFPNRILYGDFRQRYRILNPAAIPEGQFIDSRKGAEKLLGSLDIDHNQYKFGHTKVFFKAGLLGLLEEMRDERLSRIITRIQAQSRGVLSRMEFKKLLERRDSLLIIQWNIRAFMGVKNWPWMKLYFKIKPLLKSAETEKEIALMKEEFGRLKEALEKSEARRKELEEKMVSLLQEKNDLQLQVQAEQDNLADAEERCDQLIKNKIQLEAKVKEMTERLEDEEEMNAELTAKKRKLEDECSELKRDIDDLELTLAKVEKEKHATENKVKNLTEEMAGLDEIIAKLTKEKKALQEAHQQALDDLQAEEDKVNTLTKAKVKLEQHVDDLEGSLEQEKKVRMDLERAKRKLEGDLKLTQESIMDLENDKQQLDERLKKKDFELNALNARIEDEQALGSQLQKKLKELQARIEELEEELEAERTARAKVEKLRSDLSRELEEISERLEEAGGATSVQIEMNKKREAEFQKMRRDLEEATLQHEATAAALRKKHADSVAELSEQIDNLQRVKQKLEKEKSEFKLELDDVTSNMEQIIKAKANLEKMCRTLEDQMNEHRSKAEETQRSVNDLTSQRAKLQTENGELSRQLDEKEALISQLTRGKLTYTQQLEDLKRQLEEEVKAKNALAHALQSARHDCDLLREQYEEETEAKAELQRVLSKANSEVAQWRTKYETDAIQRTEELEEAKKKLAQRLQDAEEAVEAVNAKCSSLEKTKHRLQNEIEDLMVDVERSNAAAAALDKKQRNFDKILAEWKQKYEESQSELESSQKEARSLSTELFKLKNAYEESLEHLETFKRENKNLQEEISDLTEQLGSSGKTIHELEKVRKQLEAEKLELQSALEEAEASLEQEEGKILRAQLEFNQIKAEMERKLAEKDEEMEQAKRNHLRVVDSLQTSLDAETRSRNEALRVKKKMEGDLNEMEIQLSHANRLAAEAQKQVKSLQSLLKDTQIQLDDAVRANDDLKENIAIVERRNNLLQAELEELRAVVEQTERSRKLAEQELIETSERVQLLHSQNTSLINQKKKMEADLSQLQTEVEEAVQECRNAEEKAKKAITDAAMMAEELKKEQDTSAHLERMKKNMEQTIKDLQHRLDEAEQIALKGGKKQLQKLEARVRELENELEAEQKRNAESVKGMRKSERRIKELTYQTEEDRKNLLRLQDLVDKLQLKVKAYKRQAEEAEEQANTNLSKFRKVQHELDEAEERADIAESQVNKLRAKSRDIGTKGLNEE
bovine cardiac myofibrils (full-length cardiac myosin ATPase in the native sarcomere), sequence (P85100 whole entry partner): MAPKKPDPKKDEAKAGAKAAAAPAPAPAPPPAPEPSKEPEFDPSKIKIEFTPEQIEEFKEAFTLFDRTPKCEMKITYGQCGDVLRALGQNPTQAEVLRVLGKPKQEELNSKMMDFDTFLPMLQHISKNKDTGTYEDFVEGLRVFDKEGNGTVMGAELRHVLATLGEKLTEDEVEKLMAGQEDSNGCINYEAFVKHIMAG
bovine cardiac myofibrils (full-length cardiac myosin ATPase in the native sarcomere), sequence (Q3SZE5 whole entry partner): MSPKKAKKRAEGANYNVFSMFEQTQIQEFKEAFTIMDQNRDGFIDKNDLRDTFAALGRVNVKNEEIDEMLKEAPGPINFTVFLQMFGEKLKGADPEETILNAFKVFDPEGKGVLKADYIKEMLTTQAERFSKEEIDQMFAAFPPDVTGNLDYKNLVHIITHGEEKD

CDMF75 IC15 [µM] | IC50 [µM] | Structure (SMILES)
2.8 | 8.9 | Cc1nc(-c2ccc3c(c2)CCC3NC(=O)c2cnn3c2CCC3)no1 (stereo not shown) [Compound 57, N-(5-(5-methyl-1,2,4-oxadiazol-3-yl)-2,3-dihydro-1H-inden-1-yl)-5,6-dihydro-4H-pyrrolo[1,2-b]pyrazole-3-carboxamide]
4.8 | 21 | Cc1cccnc1C(=O)NC1CCc2cc(-c3noc(C(F)F)n3)ccc21 (stereo not shown) [Compound 58, N-(5-(5-(difluoromethyl)-1,2,4-oxadiazol-3-yl)-2,3-dihydro-1H-inden-1-yl)-3-methylpicolinamide]
5.7 | 28.2 | Cc1nc(-c2ccc3c(c2)CCC3NC(=O)c2ncccc2C)no1 (stereo not shown) [Compound 59, 3-methyl-N-(5-(5-methyl-1,2,4-oxadiazol-3-yl)-2,3-dihydro-1H-inden-1-yl)picolinamide]
2.3 | 8.3 | Cc1csc(C(=O)NC2CCc3cc(-c4noc(C(F)F)n4)ccc32)n1 (stereo not shown) [Compound 60, N-(5-(5-(difluoromethyl)-1,2,4-oxadiazol-3-yl)-2,3-dihydro-1H-inden-1-yl)-4-methylthiazole-2-carboxamide]
1.1 | 3.5 | Cc1ncc(C(=O)NC2CCc3cc(-c4noc(C(F)F)n4)ccc32)n1C (stereo not shown) [Compound 61, N-(5-(5-(difluoromethyl)-1,2,4-oxadiazol-3-yl)-2,3-dihydro-1H-inden-1-yl)-1,2-dimethyl-1H-imidazole-5-carboxamide]
1.5 | 8.7 | Cc1nc(-c2ccc3c(c2)CCC3NC(=O)Nc2cccnc2)no1 (stereo not shown) [Compound 62, 1-(5-(5-methyl-1,2,4-oxadiazol-3-yl)-2,3-dihydro-1H-inden-1-yl)-3-(pyridin-3-yl)urea]
2.3 | 10.1 | Cc1csc(C(=O)NC2CCc3cc(-c4noc(C)n4)ccc32)n1 (stereo not shown) [Compound 63, 4-methyl-N-(5-(5-methyl-1,2,4-oxadiazol-3-yl)-2,3-dihydro-1H-inden-1-yl)thiazole-2-carboxamide]
1.2 | 5.1 | Cc1nc(-c2ccc3c(c2)CCC3NC(=O)c2nnn(C)n2)no1 (stereo not shown) [Compound 64, 2-methyl-N-(5-(5-methyl-1,2,4-oxadiazol-3-yl)-2,3-dihydro-1H-inden-1-yl)-2H-tetrazole-5-carboxamide]
0.8 | 3 | Cc1nc(-c2ccc3c(c2)CCC3NC(=O)c2ccnn2C)no1 (stereo not shown) [Compound 65, 1-methyl-N-(5-(5-methyl-1,2,4-oxadiazol-3-yl)-2,3-dihydro-1H-inden-1-yl)-1H-pyrazole-5-carboxamide]
1.2 | 4.5 | Cc1nc(-c2ccc3c(c2)CC[C@H]3NC(=O)c2cnn(C)c2)no1 [Compound 66, (R)-1-methyl-N-(5-(5-methyl-1,2,4-oxadiazol-3-yl)-2,3-dihydro-1H-inden-1-yl)-1H-pyrazole-4-carboxamide]
0.9 | 4.7 | Cc1ccnc(C(=O)NC2CCc3cc(-c4noc(C(F)F)n4)ccc32)c1 (stereo not shown) [Compound 67, N-(5-(5-(difluoromethyl)-1,2,4-oxadiazol-3-yl)-2,3-dihydro-1H-inden-1-yl)-4-methylpicolinamide]
1.6 | 6.1 | Cc1ccnc(C(=O)NC2CCc3cc(-c4noc(C)n4)ccc32)c1 (stereo not shown) [Compound 68, 4-methyl-N-(5-(5-methyl-1,2,4-oxadiazol-3-yl)-2,3-dihydro-1H-inden-1-yl)picolinamide]
0.6 | 2.3 | Cc1n[nH]cc1C(=O)NC1CCc2cc(-c3noc(C(F)F)n3)ccc21 (stereo not shown) [Compound 69, N-(5-(5-(difluoromethyl)-1,2,4-oxadiazol-3-yl)-2,3-dihydro-1H-inden-1-yl)-3-methyl-1H-pyrazole-4-carboxamide]
1.4 | 4.8 | Cc1nc(-c2ccc3c(c2)CCC3NC(=O)c2c[nH]nc2C)no1 (stereo not shown) [Compound 70, 3-methyl-N-(5-(5-methyl-1,2,4-oxadiazol-3-yl)-2,3-dihydro-1H-inden-1-yl)-1H-pyrazole-4-carboxamide]
0.4 | 1.2 | Cc1n[nH]cc1C(=O)N[C@@H]1CCc2cc(-c3noc(C(F)F)n3)ccc21 [Compound 71, (R)-N-(5-(5-(difluoromethyl)-1,2,4-oxadiazol-3-yl)-2,3-dihydro-1H-inden-1-yl)-3-methyl-1H-pyrazole-4-carboxamide]
0.3 | 1 | Cc1oncc1C(=O)N[C@@H]1CCc2cc(-c3noc(C(F)F)n3)ccc21 [Compound 72, (R)-N-(5-(5-(difluoromethyl)-1,2,4-oxadiazol-3-yl)-2,3-dihydro-1H-inden-1-yl)-5-methylisoxazole-4-carboxamide]
0.7 | 2.5 | Cc1nn(C)cc1C(=O)NC1CCc2cc(-c3noc(C4CC4)n3)ccc21 (stereo not shown) [Compound 73, N-(5-(5-cyclopropyl-1,2,4-oxadiazol-3-yl)-2,3-dihydro-1H-inden-1-yl)-1,3-dimethyl-1H-pyrazole-4-carboxamide]
22.3 | > 39.2 | CC(=O)OCc1nc(-c2ccc3c(c2)CCC3NC(=O)c2cn(C)nc2C)no1 (stereo not shown) [Compound 74, (3-(1-(1,3-dimethyl-1H-pyrazole-4-carboxamido)-2,3-dihydro-1H-inden-5-yl)-1,2,4-oxadiazol-5-yl)methyl acetate]
0.9 | 3.1 | Cc1nn(C)cc1C(=O)NC1CCc2cc(-c3noc(C(C)C)n3)ccc21 (stereo not shown) [Compound 75, N-(5-(5-isopropyl-1,2,4-oxadiazol-3-yl)-2,3-dihydro-1H-inden-1-yl)-1,3-dimethyl-1H-pyrazole-4-carboxamide]
1.7 | 6.1 | COCc1nc(-c2ccc3c(c2)CCC3NC(=O)c2cn(C)nc2C)no1 (stereo not shown) [Compound 76, N-(5-(5-(methoxymethyl)-1,2,4-oxadiazol-3-yl)-2,3-dihydro-1H-inden-1-yl)-1,3-dimethyl-1H-pyrazole-4-carboxamide]
4.9 | 26 | CC(=O)O[C@@H](C)c1nc(-c2ccc3c(c2)CCC3NC(=O)c2cn(C)nc2C)no1 (stereo partly drawn) [Compound 77, (1S)-1-(3-(1-(1,3-dimethyl-1H-pyrazole-4-carboxamido)-2,3-dihydro-1H-inden-5-yl)-1,2,4-oxadiazol-5-yl)ethyl acetate]
2.6 | 13.6 | COC(=O)c1nc(-c2ccc3c(c2)CCC3NC(=O)c2cn(C)nc2C)no1 (stereo not shown) [Compound 78, methyl 3-(1-(1,3-dimethyl-1H-pyrazole-4-carboxamido)-2,3-dihydro-1H-inden-5-yl)-1,2,4-oxadiazole-5-carboxylate]
4.6 | 22.7 | Cc1nn(C)cc1C(=O)NC1CCc2cc(-c3noc(CO)n3)ccc21 (stereo not shown) [Compound 79, N-(5-(5-(hydroxymethyl)-1,2,4-oxadiazol-3-yl)-2,3-dihydro-1H-inden-1-yl)-1,3-dimethyl-1H-pyrazole-4-carboxamide]
27.5 | > 39.2 | Cc1nn(C)cc1C(=O)NC1CCc2cc(-c3noc([C@H](C)O)n3)ccc21 (stereo partly drawn) [Compound 80, N-(5-(5-((S)-1-hydroxyethyl)-1,2,4-oxadiazol-3-yl)-2,3-dihydro-1H-inden-1-yl)-1,3-dimethyl-1H-pyrazole-4-carboxamide]
1.1 | 3.7 | Cn1nnc(C(=O)NC2CCc3cc(-c4noc(C(F)F)n4)ccc32)n1 (stereo not shown) [Compound 81, N-(5-(5-(difluoromethyl)-1,2,4-oxadiazol-3-yl)-2,3-dihydro-1H-inden-1-yl)-2-methyl-2H-tetrazole-5-carboxamide]
1.9 | 7.8 | Cn1ncc(C(=O)NC2CCc3cc(-c4noc(C(F)F)n4)ccc32)n1 (stereo not shown) [Compound 83, N-(5-(5-(difluoromethyl)-1,2,4-oxadiazol-3-yl)-2,3-dihydro-1H-inden-1-yl)-2-methyl-2H-1,2,3-triazole-4-carboxamide]
2.7 | 10.8 | Cc1nc(C(=O)NC2CCc3cc(-c4noc(C(F)F)n4)ccc32)no1 (stereo not shown) [Compound 84, N-(5-(5-(difluoromethyl)-1,2,4-oxadiazol-3-yl)-2,3-dihydro-1H-inden-1-yl)-5-methyl-1,2,4-oxadiazole-3-carboxamide]
5.5 | 24.1 | Cc1nc(-c2ccc3c(c2)CCC3NC(=O)Nc2ccncc2)no1 (stereo not shown) [Compound 85, 1-(5-(5-methyl-1,2,4-oxadiazol-3-yl)-2,3-dihydro-1H-inden-1-yl)-3-(pyridin-4-yl)urea]
3.7 | 15.7 | Cc1nc(C(=O)NC2CCc3cc(-c4noc(C)n4)ccc32)no1 (stereo not shown) [Compound 87, 5-methyl-N-(5-(5-methyl-1,2,4-oxadiazol-3-yl)-2,3-dihydro-1H-inden-1-yl)-1,2,4-oxadiazole-3-carboxamide]
